# Read-outs that look alike come from different tables or passages of the source.
# Target: b-Raf (V600E) (Homo sapiens (Human), UniProt P15056, V600E)
# Settings: read-out: b-Raf IC-50, AlphaScreen
# [1] = 60 min pre-incubation, 3 hours reaction
# [2] = 60 min pre-incubation, reaction 3 hours at room temperature
# Chain of b-Raf (V600E) (P15056 whole entry V600E): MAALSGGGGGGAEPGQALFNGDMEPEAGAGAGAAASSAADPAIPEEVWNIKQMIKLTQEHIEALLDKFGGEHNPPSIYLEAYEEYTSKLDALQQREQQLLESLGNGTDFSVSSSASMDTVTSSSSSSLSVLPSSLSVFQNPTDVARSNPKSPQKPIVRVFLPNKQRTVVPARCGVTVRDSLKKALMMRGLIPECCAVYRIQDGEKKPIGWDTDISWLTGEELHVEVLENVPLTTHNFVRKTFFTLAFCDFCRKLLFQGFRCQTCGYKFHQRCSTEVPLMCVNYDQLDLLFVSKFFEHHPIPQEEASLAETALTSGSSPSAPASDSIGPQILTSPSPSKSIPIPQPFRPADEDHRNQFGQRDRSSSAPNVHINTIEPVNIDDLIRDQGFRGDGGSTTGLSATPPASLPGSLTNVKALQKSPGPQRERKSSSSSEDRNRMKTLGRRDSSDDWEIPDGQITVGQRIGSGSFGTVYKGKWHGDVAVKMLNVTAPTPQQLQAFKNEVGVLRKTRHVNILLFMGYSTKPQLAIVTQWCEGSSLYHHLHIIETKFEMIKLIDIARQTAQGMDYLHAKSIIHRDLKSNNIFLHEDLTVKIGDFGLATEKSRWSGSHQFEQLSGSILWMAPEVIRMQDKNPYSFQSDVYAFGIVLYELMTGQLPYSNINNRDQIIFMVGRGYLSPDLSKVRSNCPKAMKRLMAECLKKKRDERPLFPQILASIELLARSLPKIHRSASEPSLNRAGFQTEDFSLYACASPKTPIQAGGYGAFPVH
Structure (SMILES),IC50 [1],"IC50 (Table 2, 3 hours reaction)",also measured
"Cc1ccc(NC(=O)c2ccnc(S(C)(=O)=O)c2)cc1-c1cc(N2CCOCC2)c(OC2CCOCC2)nn1 [Example 582, N-(4-methyl-3-(5-morpholino-6-((tetrahydro-2H-pyran-4-yl)oxy)pyridazin-3-yl)phenyl)-2-(methylsulfonyl)isonicotinamide]",0.8 nM,–,–
"CCOc1ncc(-c2cc(NC(=O)c3cccc(C(F)(F)F)c3)cnc2C)cc1N1CCOCC1 [Example 248, N-(6′-ethoxy-2-methyl-5′-morpholino-[3,3′-bipyridin]-5-yl)-3-(trifluoromethyl)benzamide]",–,1.2 nM,–
"Cc1ncc(NC(=O)c2cc(C(F)(F)F)ccn2)cc1-c1cc(N2CCOCC2)c(OCC(F)F)nn1 [Example 916, N-(5-(6-(2,2-difluoroethoxy)-5-morpholinopyridazin-3-yl)-6-methylpyridin-3-yl)-4-(trifluoromethyl)picolinamide]",–,–,IC50 [2]: 1.31 nM
"Cc1ccc(C(=O)Nc2cccnc2)cc1-c1cc(N2CCOCC2)c(=O)n(C)c1 [Example 433, 4-methyl-3-(1-methyl-5-morpholino-6-oxo-1,6-dihydropyridin-3-yl)-N-(pyridin-3-yl)benzamide]",–,200 nM,–
"CCNc1nc(-c2cc(NC(=O)c3ccnc(C(F)(F)CC)c3)ccc2C)cc(N2CCOCC2)n1 [Example 706, 2-(1,1-difluoropropyl)-N-(3-(2-(ethylamino)-6-morpholinopyrimidin-4-yl)-4-methylphenyl)isonicotinamide]",0.8 nM,–,–
"Cc1ccc(NC(=O)c2cc(C3CC3)on2)cc1-c1cc(N2CCOCC2)nc(N2CC(O)C2)c1 [Example 1095, 5-cyclopropyl-N-(3-(2-(3-hydroxyazetidin-1-yl)-6-morpholinopyridin-4-yl)-4-methylphenyl)isoxazole-3-carboxamide]",–,–,IC50 [2]: 1.11 nM
"Cc1ncc(NC(=O)c2ccnc(S(C)(=O)=O)c2)cc1-c1cc(N2CCOCC2)nc(N2CC(O)C2)c1 [Example 1090, N-(2′-(3-hydroxyazetidin-1-yl)-2-methyl-6′-morpholino-[3,4′-bipyridin]-5-yl)-2-(methylsulfonyl)isonicotinamide]",–,–,IC50 [2]: 51.1 nM
"Cc1ncc(NC(=O)c2ccnc(C(C)(F)F)c2)cc1-c1cc(N2CCOCC2)c(OC2CCOCC2)nn1 [Example 628, 2-(1,1-difluoroethyl)-N-(6-methyl-5-(5-morpholino-6-((tetrahydro-2H-pyran-4-yl)oxy)pyridazin-3-yl)pyridin-3-yl)isonicotinamide]",1.8 nM,–,–
"Cc1ccc(NC(=O)c2cccc(-c3nnco3)c2)cc1-c1cc(N2CCOCC2)c(=O)n(C)c1 [Example 349, N-(4-methyl-3-(1-methyl-5-morpholino-6-oxo-1,6-dihydropyridin-3-yl)phenyl)-3-(1,3,4-oxadiazol-2-yl)benzamide]",–,6.2 nM,–
"CCc1cc(C(=O)Nc2ccc(C)c(-c3cc(N4CCOCC4)c(=O)n(C)c3)c2)ccn1 [Example 353, 2-ethyl-N-(4-methyl-3-(1-methyl-5-morpholino-6-oxo-1,6-dihydropyridin-3-yl)phenyl)isonicotinamide]",–,1.2 nM,–
"CCn1cc(-c2cc(NC(=O)c3ccnc(C(C)(C)C#N)c3)cnc2C)cc(N2CCOCC2)c1=O [Example 332, 2-(2-cyanopropan-2-yl)-N-(1′-ethyl-2-methyl-5′-morpholino-6′-oxo-1′,6′-dihydro-[3,3′-bipyridin]-5-yl)isonicotinamide]",–,23.2 nM,–
"COc1ncc(-c2cc(NC(=O)c3ccnc(C(C)(C)F)c3)cnc2Cl)cc1N1CCOCC1 [Example 262, N-(2-chloro-6′-methoxy-5′-morpholino-[3,3′-bipyridin]-5-yl)-2-(2-fluoropropan-2-yl)isonicotinamide]",–,3.4 nM,–
"Cc1ccc(NC(=O)c2ccnc(C3(C#N)CC3)c2)cc1-c1cc(N2CCOCC2)n2nccc2n1 [Example 796, 2-(1-cyanocyclopropyl)-N-(4-methyl-3-(7-morpholinopyrazolo[1,5-a]pyrimidin-5-yl)phenyl)isonicotinamide]",0.7 nM,–,–
"Cc1ccc(NC(=O)c2ccnc(C3(C#N)CC3)c2)cc1-c1cc(NCCO)nc(N2CCOCC2)c1 [Example 1050, 2-(1-cyanocyclopropyl)-N-(3-(2-((2-hydroxyethyl)amino)-6-morpholinopyridin-4-yl)-4-methylphenyl)isonicotinamide]",–,–,IC50 [2]: 1.31 nM
"Cc1ncc(NC(=O)c2ccnc(C(F)(F)F)c2)cc1-c1cc(N2CCOCC2)c(=O)n(C)c1 [Example 390, N-(1′,2-dimethyl-5′-morpholino-6′-oxo-1′,6′-dihydro-[3,3′-bipyridin]-5-yl)-2-(trifluoromethyl)isonicotinamide]",–,5.4 nM,–
"CCOc1nnc(-c2cc(NC(=O)c3cnnc(C(F)(F)F)c3)cnc2C)cc1N1CCOCC1 [Example 614, N-(5-(6-ethoxy-5-morpholinopyridazin-3-yl)-6-methylpyridin-3-yl)-6-(trifluoromethyl)pyridazine-4-carboxamide]",4.2 nM,–,–
"Cc1ccc(NC(=O)c2cncc(N(C)C)c2)cc1-c1cc(N2CCOCC2)nc(N2CCOCC2)n1 [Example 18, 5-(dimethylamino)-N-(3-(2,6-dimorpholinopyrimidin-4-yl)-4-methylphenyl)nicotinamide]",–,0.5 nM,–

Structure (SMILES),IC50 [1],"IC50 (Table 2, 3 hours reaction)",also measured
"Cc1ccc(NC(=O)c2ccnc(C(C)(C)C#N)c2)cc1-c1cc(N2CCOCC2)n2nccc2n1 [Example 792, 2(2-cyanopropan-2-yl)-N-(4-methyl-3(7-morpholinopyrazolo[1,5-a]pyrimidin-5-yl)phenyl)isonicotinamide]",1.7 nM,–,–
"Cc1ccc(NC(=O)c2ccnc(C(C)(F)F)c2)cc1-c1cc(N2CCOC[C@H]2C)n(C)c(=O)c1 [Example 523, (R)-2-(1,1-difluoroethyl)-N-(4-methyl-3-(1-methyl-6-(3-methylmorpholino)-2-oxo-1,2-dihydropyridin-4-yl)phenyl)isonicotinamide]",3.7 nM,–,–
"Cc1ccc(NC(=O)c2ccnc(C(C)(C)C#N)c2)cc1-c1nc2c(c(N3CCOCC3)n1)CNC2 [Example 866, 2-(2-cyanopropan-2-yl)-N-(4-methyl-3-(4-morpholino-6,7-dihydro-5H-pyrrolo[3,4-d]pyrimidin-2-yl)phenyl)isonicotinamide]",–,–,IC50 [2]: 7.6 nM
"Cc1ccc(NC(=O)c2cccc(C(F)(F)F)c2)cc1-c1cc(N2CCOCC2)c(=O)n(CC2(C)COC2)c1 [Example 337, N-(4-methyl-3-(1-((3-methyloxetan-3-yl)methyl)-5-morpholino-6-oxo-1,6-dihydropyridin-3-yl)phenyl)-3-(trifluoromethyl)benzamide]",–,12.5 nM,–
"Cc1ccc(NC(=O)c2cccc(C(F)(F)F)c2)cc1-c1nc(N2CCOCC2)c2cnn(C)c2n1 [Example 840, N-(4-methyl-3-(1-methyl-4-morpholino-1H-pyrazolo[3,4-d]pyrimidin-6-yl)phenyl)-3-(trifluoromethyl)benzamide]",0.6 nM,–,–
"Cc1ccc(NC(=O)c2cnnc(C3CC3)c2)cc1-c1cc(N2CCOCC2)c(=O)n(C)c1 [Example 362, 6-cyclopropyl-N-(4-methyl-3-(1-methyl-5-morpholino-6-oxo-1,6-dihydropyridin-3-yl)phenyl)pyridazine-4-carboxamide]",–,2.9 nM,–
"Cc1ccc(C(=O)Nc2cccc(C(C)(C)C#N)c2)cc1-c1cc(N2CCOCC2)c(=O)n(C)c1 [Example 431, N-(3-(2-cyanopropan-2-yl)phenyl)-4-methyl-3-(1-methyl-5-morpholino-6-oxo-1,6-dihydropyridin-3-yl)benzamide]",–,3.7 nM,–
"Cc1ncc(NC(=O)c2ccnc(C(C)(C)F)c2)cc1-c1cnc(OC2CCOCC2)c(N2C3CCC2COC3)c1 [Example 279, N-(5′-(3-oxa-8-azabicyclo[3.2.1]octan-8-yl)-2-methyl-6′-((tetrahydro-2H-pyran-4-yl)oxy)-[3,3′-bipyridin]-5-yl)-2-(2-fluoropropan-2-yl)isonicotinamide]",–,3200 nM,–
"CCC(F)(F)c1cc(C(=O)Nc2cnc(C)c(-c3cc(N4CCOCC4)c(OC)nn3)c2)ccn1 [Example 607, 2-(1,1-difluoropropyl)-N-(5-(6-methoxy-5-morpholinopyridazin-3-yl)-6-methylpyridin-3-yl)isonicotinamide]",4.7 nM,–,–
"Cn1cc(-c2cc(NC(=O)c3ccnc(C(F)(F)F)c3)ccc2C#N)cc(N2CCOCC2)c1=O [Example 415, N-(4-cyano-3-(1-methyl-5-morpholino-6-oxo-1,6-dihydropyridin-3-yl)phenyl)-2-(trifluoromethyl)isonicotinamide]",–,10100 nM,–
Cc1ncc(NC(=O)c2cccc(C(F)(F)F)c2)cc1-c1cnc(OC2COC2)c(N2CCOCC2)c1 [Example 315],–,0.8 nM,–
"Cc1ncc(NC(=O)c2ccnc(C(C)(C)C#N)c2)cc1-c1cnc(OC(C)C)c(N2CCOCC2)c1 [Example 954, 2-(2-cyanopropan-2-yl)-N-(6′-isopropoxy-2-methyl-5′-morpholino-[3,3′-bipyridin]-5-yl)isonicotinamide]",–,–,IC50 [2]: 7.3 nM
"Cc1ccc(C(=O)Nc2cccc(C(C)C)c2)cc1-c1cc(N2CCOCC2)c(=O)n(C)c1 [Example 436, N-(3-isopropylphenyl)-4-methyl-3-(1-methyl-5-morpholino-6-oxo-1,6-dihydropyridin-3-yl)benzamide]",3.8 nM,–,–
"Cc1ncc(NC(=O)c2cccc(C(F)(F)F)c2)cc1-c1cc(N2CCOCC2)nc(N[C@@H](C)CO)n1 [Example 745, (S)—N-(5-(2-((1-hydroxypropan-2-yl)amino)-6-morpholinopyrimidin-4-yl)-6-methylpyridin-3-yl)-3-(trifluoromethyl)benzamide]",3.6 nM,–,–
"Cc1ncc(NC(=O)c2ccnc(C(C)(C)C)c2)cc1-c1cc(N2CCOCC2)n(C)c(=O)c1 [Example 507, 2-(tert-butyl)-N-(1′,2-dimethyl-6′-morpholino-2′-oxo-1′,2′-dihydro-[3,4′-bipyridin]-5-yl)isonicotinamide]",20.6 nM,–,–
"Cc1ncc(NC(=O)c2cccc(C(F)(F)F)c2)cc1-c1cnc(CC2(O)CCOCC2)c(N2CCOCC2)c1 [Example 993, N-(6′-((4-hydroxytetrahydro-2H-pyran-4-yl)methyl)-2-methyl-5′-morpholino-[3,3′-bipyridin]-5-yl)-3-(trifluoromethyl)benzamide]",–,–,IC50 [2]: 9.66 nM
